The record followed here is patent publication US7902373B2 (Pfizer Inc, priority 2006, dated 2011).

In this test the target is human recombinant H-PGDS (Homo sapiens, UniProt O60760). The test is described as follows: Fluorescence intensity h-PGDS TBA enzyme assay. The class given is biochemical. As to conditions: Examples up to 622 (and 3a, 3b).
Chain of human recombinant H-PGDS (O60760 whole entry): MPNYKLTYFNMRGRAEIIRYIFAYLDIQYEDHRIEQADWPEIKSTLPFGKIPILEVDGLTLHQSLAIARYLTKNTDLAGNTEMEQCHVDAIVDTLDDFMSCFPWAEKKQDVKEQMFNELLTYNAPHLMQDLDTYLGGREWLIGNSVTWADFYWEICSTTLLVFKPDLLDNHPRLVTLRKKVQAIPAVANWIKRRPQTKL

In the case of `COc1ccc(CN2CCC(NC(=O)c3ccc(-c4cccc(F)c4)nc3)CC2)cn1` [Example 353, 6-(3-Fluorophenyl)-N-{1-[(6-methoxypyridin-3-yl)methyl]piperidin-4-yl}nicotinamide], the IC50 was 0.959 nM.

In the case of `Cc1ccccc1-c1c(CN2CCC(NC(=O)c3ccc(-c4cccc(F)c4)nc3)CC2)cnn1C` [Example 509, 6-(3-Fluorophenyl)-N-(1-{[1-methyl-5-(2-methylphenyl)-1H-pyrazol-4-yl]methyl}piperidin-4-yl)nicotinamide], the IC50 amounted to 0.665 nM.

Regarding `CC1(CN2CCC(NC(=O)c3ccc(-c4cccc(F)c4)nc3)CC2)CCC1` [Example 511, 6-(3-Fluorophenyl)-N-{1-[(1-methylcyclobutyl)methyl]piperidin-4-yl}nicotinamide], the IC50 worked out at 1.09 nM.

Regarding `O=C(NC1CCN(c2ccc(C(=O)N3CCOCC3)cn2)CC1)c1ccc(-c2cccc(F)c2)nc1` [Example 3, 6-(3-Fluorophenyl)-N-{1-[5-(morpholin-4-ylcarbonyl)pyridin-2-yl]piperidin-4-yl}nicotinamide], the IC50 came out at 0.343 nM.

As for `CCCn1cc(CN2CCC(NC(=O)c3ccc(-c4cccc(F)c4)nc3)CC2)cn1` [Example 516, 6-(3-Fluorophenyl)-N-{1-[(1-propyl-1H-pyrazol-4-yl)methyl]piperidin-4-yl}nicotinamide], the half-maximal inhibitory concentration (IC50) was 2.2 nM.

Take `O=C(NC1CCN(c2ccc(C(=O)N3CCSC3)cn2)CC1)c1ccc(-c2cccc(F)c2)nc1` [Example 573, 6-(3-Fluorophenyl)-N-{1-[5-(1,3-thiazolidin-3-ylcarbonyl)pyridin-2-yl]piperidin-4-yl}nicotinamide]: the IC50 was found to be 1.35 nM.

With `COc1ccccc1C(C)N1CCC(NC(=O)c2ccc(-c3cccc(F)c3)nc2)CC1` (stereo not drawn) [Example 530, 6-(3-Fluorophenyl)-N-{1-[1-(2-methoxyphenyl)ethyl]piperidin-4-yl}nicotinamide], the IC50 worked out at 2.71 nM.

With `N#Cc1ccccc1C(=O)c1cccnc1N1CCC(NC(=O)c2ccc(-c3cccc(F)c3)nc2)CC1` [Example 77, N-{1-[3-(2-Cyanobenzoyl)pyridin-2-yl]piperidin-4-yl}-6-(3-fluorophenyl)nicotinamide], the IC50 was 0.425 nM.

With `CCOc1ccc2nc(CN3CCC(NC(=O)c4ccc(-c5cccc(F)c5)nc4)CC3)ccc2c1` [Example 338], the IC50 turned out to be 62.7 nM.

As for `Cc1nn(C)c(Cl)c1CN1CCC(NC(=O)c2ccc(-c3cccc(F)c3)nc2)CC1` [Example 319, N-{1-[(5-Chloro-1,3-dimethyl-1H-pyrazol-4-yl)methyl]piperidin-4-yl}-6-(3-fluorophenyl)nicotinamide], the 50% inhibitory concentration (IC50) came out at 0.384 nM.

Take `Cc1cccc(-c2ccc(C(=O)NC3CCN(Cc4ccccc4)CC3)cn2)c1` [Example 23, N-(1-Benzylpiperidin-4-yl)-6-(3-methylphenyl)nicotinamide]: the IC50 was 1.72 nM.

On to `Cc1cc(CN2CCC(NC(=O)c3ccc(-c4cccc(F)c4)nc3)CC2)no1` [Example 351, 6-(3-Fluorophenyl)-N-{1-[(5-methylisoxazol-3-yl)methyl]piperidin-4-yl}nicotinamide], for which the half-inhibitory concentration (IC50) turned out to be 0.531 nM.

With `O=C(NC1CCN(Cc2cccc3c2OCCO3)CC1)c1ccc(-c2cccc(F)c2)nc1` [Example 418, N-[1-(2,3-Dihydro-1,4-benzodioxin-5-ylmethyl)piperidin-4-yl]-6-(3-fluorophenyl)nicotinamide], the IC50 came to 0.427 nM.

`O=C(NC1CCN(Cc2ccc3nsnc3c2)CC1)c1ccc(-c2cccc(F)c2)nc1` [Example 288, N-[1-(2,1,3-Benzothiadiazol-5-ylmethyl)piperidin-4-yl]-6-(3-fluorophenyl)nicotinamide]: the IC50 is 1.25 nM.

With `CN(CCC#N)C(=O)c1ccc(N2CCC(NC(=O)c3ccc(-c4cccc(F)c4)nc3)CC2)nc1` [Example 576, N-(2-Cyanoethyl)-6-[4-({[6-(3-fluorophenyl)pyridin-3-yl]carbonyl}amino)piperidin-1-yl]-N-methylnicotinamide], the IC50 was 0.561 nM.

Broadly, the IC50 is the point on the concentration scale where inhibition reaches its midpoint.
